In patent US20230026869A1, “CRYSTAL FORM OF NUCLEOPROTEIN INHIBITOR AND USE THEREOF” (CHIA TAI TIANQING PHARMACEUTICAL GROUP CO., LTD., priority 2019, published 2023):

Legend:
[1] = molecular target: T1, CYP2D6 (Homo sapiens, UniProt P10635); assay: Inhibition of human liver microsomal cytochrome P450 isoenzyme CYP2D6; assay type: in vitro ADME; details: human liver microsomes
T1 construct: from tissue; host or cells: human liver microsomes
Protocol: Objective: The inhibitory effect of the test compound on the activity of human liver microsomal cytochrome P450 isoenzymes (CYP1A2, CYP2C9, CYP2C19, CYP2D6 and CYP3A4) was determined. […]

[2] = Experiment on cytotoxicity (CellTiter-Glo, 3 days); assay type: cell-based; details: 3 days incubation, read-out: 50% cytotoxic concentration (CC50)
Protocol: • 1. The compound was diluted with DMSO (dimethyl sulfoxide) in a 3-fold gradient for 9 concentrations, and added into a 96-well plate in duplicate. The compound concentration was 200-fold of the final test concentration. • 2. The cells were rinsed with PBS (phosphate buffered saline) once, added with 0.25% trypsin and digested for about 2-5 min in a 37° C., 5% CO2 incubator. Then the digestion was terminated with a cell culture medium and the cells were dispersed into single cells by pipetting with a pipettor. • 3. The cell density was counted with a cell counter, and adjusted to the required density with the medium. • 4. The cells were added into a 96-well plate that had been added with the compound. The final concentration of DMSO in each well was 0.5%. Wells containing 0.5% DMSO were used as non-toxic negative controls, and wells containing the cell culture medium were used as 100% cytotoxicity controls. Then the cell plate was incubated in a 37° C., 5% CO2 cell incubator for 3 days. • 5. The chemiluminescence signal (RLU, relative chemiluminescence unit) of each well in the cell plate was detected with the cell viability detection kit CellTiter-Glo using the multi-functional microplate reader Envision, with instructions on the kit followed. • 6. The raw data (RLU) were substituted into the following formula to calculate the cell viability of each well (cell viability %): […]

T1 sequence (P10635 whole entry): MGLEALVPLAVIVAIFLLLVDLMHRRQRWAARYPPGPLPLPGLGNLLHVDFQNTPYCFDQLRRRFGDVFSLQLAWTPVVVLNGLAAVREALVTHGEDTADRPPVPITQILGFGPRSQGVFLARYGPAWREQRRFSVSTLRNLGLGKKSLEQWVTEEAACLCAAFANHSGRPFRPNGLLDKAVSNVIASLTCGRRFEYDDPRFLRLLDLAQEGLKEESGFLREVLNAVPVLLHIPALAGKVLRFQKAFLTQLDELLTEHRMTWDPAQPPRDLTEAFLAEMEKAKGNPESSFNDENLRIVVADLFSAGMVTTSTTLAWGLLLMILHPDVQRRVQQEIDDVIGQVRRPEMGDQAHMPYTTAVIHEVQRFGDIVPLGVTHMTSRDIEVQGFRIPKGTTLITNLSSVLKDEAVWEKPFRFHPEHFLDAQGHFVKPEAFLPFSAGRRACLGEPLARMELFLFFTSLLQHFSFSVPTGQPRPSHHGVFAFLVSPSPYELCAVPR

For `CC1(NC(=O)C(=O)c2c(Cl)c(C(=O)Nc3cc(F)c(F)c(F)c3)c3n2CCC3)CCC(CC(=O)O)CC1` (centres unmarked) [Compound of formula (I)], the IC50 [1] was > 50 µM and the CC50 at 3 days [2] was > 50 µM.
